Molecular target: T1, p38α (Homo sapiens, UniProt Q16539)
T1 construct: purchased Calbiochem 559324; host or cells: E. coli
Assay: p38 Kinase Assay (ATF-2 phosphorylation ELISA)
Type: biochemical
Details: human recombinant p38 activated with MKK6; 2 h preincubation; ATP 250 μM; 1% DMSO; read-out: p38α inhibition
Method: Human recombinant p38 enzyme expressed in E. coli and activated by incubation with MKK6 enzyme (Calbiochem #559324) is used as source of enzyme activity.
The assay is carried in high binding, clear, flat bottom 96 well assay plates which have been coated with recombinant ATF-2 (Biosource #PHF0043). Test compounds are incubated with p38 kinase for 2 h prior to initiating the kinase assay by the addition of ATP to obtain an assay concentration of 250 μM. Phosphorylation of ATF-2 is detected and quantified using an ELISA. This consists of sequential incubation in the presence of anti-phospho-ATF2, biotinylated anti-IgG and streptavidin-HRP. Incubation with an HRP chromogenic substrate (TMB) results in absorbance that is proportional to the amount of phosphorylated substrate produced. Absorbance is detected using a multiwell plate reader.
Compounds are diluted in DMSO prior to addition to assay buffer, the final DMSO concentration in the assay being 1%.
The IC50 is defined as the concentration at which a given compound achieves 50% inhibition of control.

T1 sequence (Q16539 whole entry): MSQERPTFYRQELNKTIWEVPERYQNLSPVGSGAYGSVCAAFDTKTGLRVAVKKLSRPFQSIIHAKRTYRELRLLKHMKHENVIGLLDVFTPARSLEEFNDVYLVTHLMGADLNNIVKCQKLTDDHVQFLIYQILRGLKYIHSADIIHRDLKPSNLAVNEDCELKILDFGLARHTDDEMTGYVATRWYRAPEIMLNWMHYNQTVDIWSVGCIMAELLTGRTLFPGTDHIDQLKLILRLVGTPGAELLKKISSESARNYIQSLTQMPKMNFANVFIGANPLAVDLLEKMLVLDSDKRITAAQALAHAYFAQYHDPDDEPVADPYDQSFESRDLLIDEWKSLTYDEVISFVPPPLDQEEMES

IC50 [nM]	Compound
< 10	NC(=O)C(c1ccc(Sc2ccccc2CNC(=O)c2cc(F)cc(N3CCOCC3)c2)nn1)c1c(Cl)cccc1Cl (centres unmarked) [Example 1, N-[2-({6-[2-Amino-1-(2,6-dichlorophenyl)-2-oxoethyl]pyridazin-3-yl}sulfanyl)benzyl]-3-fluoro-5-(morpholin-4-yl)benzamide]
< 100	O=C(NCc1ccccc1Sc1ccc2c(-c3c(Cl)cccc3Cl)c(=O)ncn2n1)c1cc(F)cc(N2CCOCC2)c1 [Example 2, N-(2-{[5-(2,6-Dichlorophenyl)-6-oxo-6H-pyrimido[1,6-b]pyridazin-2-yl]sulfanyl}benzyl)-3-fluoro-5-(morpholin-4-yl)benzamide]

Reference: patent publication US8450314B2, “Pyrimidopyridazine derivatives useful as P38 MAPK inhibitors” (Chiesi Farmaceutici S.p.A., priority 2009, dated 2013)
